According to the supplement of paper PMC13380429:

Tests used:
Details in all cases: 72 h
Calu-3 [1] = assay: drug sensitivity score (DSS) for viability; higher = more toxic; extreme values may be limits of the assay
Vero E6 [2] = assay: as above
U2OS [3] = assay: as above
HepG2 [4] = assay: as above
Caco-2 [5] = assay: as above
Calu-3 [6] = assay: cell viability relative to DMSO; higher = less toxic
Vero E6 [7] = assay: as above
U2OS [8] = assay: as above
HepG2 [9] = assay: as above
Caco-2 [10] = assay: as above
Calu-3 [11] = assay: relative viability EC50 (midpoint between 100% and the lowest measured viability); higher = less toxic
Vero E6 [12] = assay: as above
U2OS [13] = assay: as above
HepG2 [14] = assay: as above
Caco-2 [15] = assay: as above

SMILES	drug sensitivity score (Calu-3 [1])	drug sensitivity score (Vero E6 [2])	drug sensitivity score (U2OS [3])	drug sensitivity score (HepG2 [4])	drug sensitivity score (Caco-2 [5])	cell viability (Calu-3 [6]; 1 nM) [%]	cell viability (Calu-3 [6]; 10 nM) [%]	cell viability (Calu-3 [6]; 100 nM) [%]	cell viability (Calu-3 [6]; 1000 nM) [%]	cell viability (Calu-3 [6]; 10000 nM) [%]	cell viability (Vero E6 [7]; 1 nM) [%]	cell viability (Vero E6 [7]; 10 nM) [%]	cell viability (Vero E6 [7]; 100 nM) [%]	cell viability (Vero E6 [7]; 1000 nM) [%]	cell viability (Vero E6 [7]; 10000 nM) [%]	cell viability (U2OS [8]; 1 nM) [%]	cell viability (U2OS [8]; 10 nM) [%]	cell viability (U2OS [8]; 100 nM) [%]	cell viability (U2OS [8]; 1000 nM) [%]	cell viability (U2OS [8]; 10000 nM) [%]	cell viability (HepG2 [9]; 1 nM) [%]	cell viability (HepG2 [9]; 10 nM) [%]	cell viability (HepG2 [9]; 100 nM) [%]	cell viability (HepG2 [9]; 1000 nM) [%]	cell viability (HepG2 [9]; 10000 nM) [%]	cell viability (Caco-2 [10]; 1 nM) [%]	cell viability (Caco-2 [10]; 10 nM) [%]	cell viability (Caco-2 [10]; 100 nM) [%]	cell viability (Caco-2 [10]; 1000 nM) [%]	cell viability (Caco-2 [10]; 10000 nM) [%]	relative viability EC50 (Calu-3 [11]) [µM]	relative viability EC50 (Vero E6 [12]) [µM]	relative viability EC50 (U2OS [13]) [µM]	relative viability EC50 (HepG2 [14]) [µM]	relative viability EC50 (Caco-2 [15]) [µM]
CC1(C)OC2(C)C(O)CC1CC2O (stereo not given) [epomediol]	0	0	0	0	0	97.1	82.6	97.5	90.9	105	98.7	97	98	98.7	94	108	97.3	98.1	97.7	102	99.9	98.1	96.2	112	101	98.7	92.1	98.2	95	101	> 10	> 10	> 10	> 10	> 10
CC[C@H]1OC(=O)[C@H](C)[C@@H](O[C@H]2C[C@@](C)(OC)[C@@H](O)[C@H](C)O2)[C@H](C)[C@@H](O[C@@H]2O[C@H](C)C[C@H](N(C)C)[C@H]2O)[C@](C)(O)C[C@@H](C)C(=O)[C@H](C)[C@@H](O)[C@]1(C)O [erythromycin]	0.5	0	0	0	0	94.2	102	97.5	90	86.9	101	97.9	101	97.4	99.5	104	102	102	98	101	100	83.5	98.1	91.4	90.4	97.9	100	97.2	94.4	96.4	> 10	> 10	> 10	> 10	> 10
CCOC(=O)[C@@H](N)Cc1ccc(O)c(O)c1 [etilevodopa]	0.3	0	0	0	2.8	103	95.6	92.2	88.8	94	101	89.7	89.7	98.9	111	92.6	95.7	98.3	96.3	99.3	86.2	96	88.1	99.1	92.5	94	107	84.2	85.8	92.8	> 10	> 10	> 10	> 10	> 10
CC1CC(OC(=O)C(O)c2ccccc2)CC(C)(C)N1C (stereo not given) [eucatropine]	0	0	0	0	0	101	100	92.5	95	107	97.8	102	98.2	102	98.8	104	104	97.8	100	100	93.5	88.3	95.3	90	93.3	99.3	103	97	99.2	92.6	> 10	> 10	> 10	> 10	> 10
CC(=O)OCC(CCn1cnc2cnc(N)nc21)COC(C)=O [famciclovir]	0	0	0	0	1.4	104	99.4	91.1	106	93.9	99.7	102	98.7	96.9	100	100	104	95	102	95.5	103	98.4	103	96.8	100	91.3	101	105	87.4	82.8	> 10	> 10	> 10	> 10	> 10
O=c1[nH]c(=O)n([C@H]2C[C@H](O)[C@@H](CO)O2)cc1F [floxuridine]	0.5	11.8	0.3	19	24.9	101	85.1	93.6	88.9	89	97.2	91.8	74.6	53.6	42.2	95.3	99.9	101	105	82.6	109	66.2	59.4	50	43.1	88.4	62	42	29.9	44.6	> 10	0.134	> 10	0.0144	0.0088
N=C(N)NC(=O)Cc1c(Cl)cccc1Cl [guanfacine]	0	0	0	0	0	92.7	83.6	98.9	91.7	99.1	93.8	105	101	104	89.8	102	93.1	104	97.4	100	88.5	95.2	93.3	94	101	93.9	95.7	110	104	100	> 10	> 10	> 10	> 10	> 10
